From US20230381157A1, “RIFABUTIN FOR THE TREATMENT OF ACINETOBACTER BAUMANNII” (University of Southern California, priority 2018, published 2023) come the findings set out here.

Each structure is given as a SMILES string. Converted amounts (≈) assume the structure as drawn. “Also recorded” adds a separate entry of the source. Read-outs that look alike come from different tables or passages of the source.

For test [1], the system named is S. aureus LAC. Format: cell-based, Staphylococcus aureus. The following applies: TSA.
The test system of test [2] is A. baumannii HUMC1. The format is in vivo, mouse.
For the next test, the system named is LAC-4. The format is in vivo, Galleria mellonella. The following applies: G. mellonella.
In test [3] the test system is S. aureus LAC. Put plainly: microbe, parasite or virus in culture. The format is cell-based. The following applies: Staphylococcus aureus.
In test [4] the test system is A. baumannii HUMC1. Put plainly: IC50 dose response, inhibition of bacterial growth (BacTiter-Glo viability). The format is cell-based, Acinetobacter baumannii. The following applies: Acinetobacter baumannii, 11-point dose response.

The IC50 is the concentration at which inhibition is half-maximal. As to `CO[C@H]1/C=C/O[C@@]2(C)Oc3c(C)c(O)c4c(c3C2=O)C2=NC3(CCN(CC(C)C)CC3)NC2=C(NC(=O)/C(C)=C\C=C\[C@H](C)[C@H](O)[C@@H](C)[C@@H](O)[C@@H](C)[C@H](OC(C)=O)[C@@H]1C)C4=O` [rifabutin], in the test with S. aureus LAC [1], the “Mutation Frequency” value is recorded as 1.10E−07. Besides, the survival result in the test on A. baumannii HUMC1 [2] (IV infection, 10 mg/kg/day for 3 days, oral gavage, 10 mg/kg/day) is “improved survival”; in the test with A. baumannii HUMC1 [2] (IV infection, 10 mg/kg/day for 3 days, oral gavage, listed as RBT, 10 mg/kg/day), “significant improvement in survival; also recorded: significantly improved survival”; in the test with A. baumannii HUMC1 [2] (bacteremia model, 10 mg/kg for 3 days, 2 days post infection, PBS/control 0%), “about 100%”. Also, the CFUs in blood entry in the test with A. baumannii HUMC1 [2] (IV infection, 10 mg/kg/day for 3 days, oral gavage, at 1 hr) was “significantly lower CFUs in the blood”; in the test with A. baumannii HUMC1 [2] (IV infection, 10 mg/kg/day for 3 days, oral gavage, at 24 hrs, 10 mg/kg/day) it was “significantly lower CFUs in the lung”; in the test on A. baumannii HUMC1 [2] (IV infection, 10 mg/kg/day for 3 days, oral gavage, at 24 hrs, listed as RBT, 10 mg/kg/day) it was “significantly lower CFUs in the blood; also recorded: significantly reduced CFUs”. The “fully protective at fold lower dose than RIF” value in the test on A. baumannii HUMC1 [2] (IV infection, RBT 0.1 or 0.3, RIF 10 or 30 mg/kg/daily for 3 days, printed 100X / 100×) worked out at 100. In addition, the protection result in the test with A. baumannii HUMC1 [2] (murine bacteremia, 0.1 mg/kg) was “fully protective”. Also, the “efficacy RBT vs RIF” value in the test with LAC-4 is listed as “no difference in efficacy”. For the same compound, the MIC amounted to 0.012 µg/mL (≈ 0.0142 µM) in the test with S. aureus LAC [3] (MHII) and 0.025 µg/mL (≈ 0.0295 µM) against S. aureus LAC [3] (RPMI). For the same compound, the IC50 with A. baumannii HUMC1 [4] (HUMC1, 24 h, HUMC1, RPMI + 50% Serum) is less than 0.847 nM; in the test with A. baumannii HUMC1 [4] (HUMC1, HUMC1, RPMI + 50% Serum), less than 0.847 nM; in the test with A. baumannii HUMC1 [4] (HUMC1, HUMC1, RPMI) it was 1 nM.
